The assay concerns the target Serine/threonine-protein kinase 16 (Homo sapiens) (UniProt O75716). The assay can be described thus: ligand-induced STK16 melting temperature shift – biophysical, recombinant human kinase, DSF (AID 395). The note with it: recombinant STK16, DSF thermal shift, SYPRO orange, at 10 µM, protein 2 µM, buffer 10 mM HEPES, hits give high values.

The structures appear in SMILES notation.

Chain of Serine/threonine-protein kinase 16 (Homo sapiens) (O75716 whole entry, looked up): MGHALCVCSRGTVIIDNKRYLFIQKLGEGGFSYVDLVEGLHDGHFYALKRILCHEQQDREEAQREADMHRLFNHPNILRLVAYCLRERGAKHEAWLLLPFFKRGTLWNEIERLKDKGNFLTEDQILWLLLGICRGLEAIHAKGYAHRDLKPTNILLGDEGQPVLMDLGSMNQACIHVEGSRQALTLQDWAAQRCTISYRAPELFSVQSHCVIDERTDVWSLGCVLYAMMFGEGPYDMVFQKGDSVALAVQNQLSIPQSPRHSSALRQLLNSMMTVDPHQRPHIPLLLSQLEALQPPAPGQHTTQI

Turning to `COC(=O)c1cnc2oc3ccc(O)cc3c2c1-c1ccccc1`, the Tm shift is 5.35 °C. The same measure, in the same setting: the figure for `O=c1cc(-c2ccc(O)cc2)oc2cc(O)cc(O)c12` is 4.78 °C. In the case of `OCC(O)CCO/N=C1/C(c2c(O)[nH]c3ccccc23)=Nc2ccccc21` (stereo unspecified), the Tm shift (pH 7.5, NaCl 150 mM) is 11.7 °C.

For `O=c1[nH]c2ncc(-c3cccnc3)nc2n1C1CCCC1`, the Tm shift was 5.29 °C. In the case of `CC(C)c1nn(-c2c(Cl)cccc2Cl)c2nc(Cc3ccc(OCCO)cc3)[nH]c(=O)c12`, the Tm shift (pH 7.5, NaCl 150 mM) was 3.5 °C. Consider `CC(C)C(CO)Nc1nc(Nc2cccc(Cl)c2)c2ncn(C(C)C)c2n1` (stereo unspecified), for which the Tm shift is 3.15 °C.

Consider `O=C1Nc2ccccc2/C1=C\c1cnc[nH]1`, for which the Tm shift was 7.49 °C. As for `Cn1cc(/C=C2\C(=O)Nc3ccc(S(N)(=O)=O)cc32)c2ccccc21`, the Tm shift (pH 7.5, NaCl 150 mM) was 4.8 °C. Take `CC(O)O/N=C1/C(c2c(O)[nH]c3cc(Br)ccc23)=Nc2ccccc21` (stereo unspecified): the Tm shift (pH 7.5, NaCl 150 mM) was 4.2 °C.

As for `NC(=O)Nc1sc(-c2ccccc2)cc1C(N)=O`, the Tm shift (pH 7.5, NaCl 150 mM) is 4.5 °C. As to `Nc1ncnc2c1c(I)cn2[C@@H]1O[C@H](CO)C(O)C1O` (stereo partly specified), the Tm shift was 3.88 °C.

Turning to `Fc1ccc(CNc2ccc3ncc(-c4ccco4)n3n2)cc1`, the Tm shift is 4.18 °C.

On to `COc1cc(C2Oc3cc(O)cc(O)c3C(=O)C2=O)ccc1O` (stereo unspecified), for which the Tm shift (pH 7.5, NaCl 150 mM) is 3.97 °C. `O=C1Nc2ccccc2/C1=C/c1ccc[nH]1`: the Tm shift is 4.28 °C. On the same count and under the same terms, next, `Cc1cc(C=C2C(=O)C=CC2=O)cc(C)c1O`: 3.24 °C. For `O=c1cc(-c2ccc(O)c(O)c2)oc2cc(O)cc(O)c12`, the Tm shift (pH 7.5, NaCl 150 mM) is 4.82 °C. On to `COc1ccc2c(c1)/C(=C/c1cnc[nH]1)C(=O)N2`, for which the Tm shift was 4.35 °C.

Regarding `O=Nc1c(-c2c(O)[nH]c3ccc(I)cc23)[nH]c2ccccc12`, the Tm shift (pH 7.5, NaCl 150 mM) was 4.2 °C. As for `Clc1ccc(-c2cnn3ccc(NCc4cccnc4)nc23)cc1`, the Tm shift was 3.85 °C.

For the compound `N=C(N)SCCCn1cc(C2=C(c3c[nH]c4ccccc34)C(=O)NC2=O)c2ccccc21`, the Tm shift (pH 7.5, NaCl 150 mM) is 4.3 °C. Consider `c1ccc(-c2cnc3ccc(NCc4cccs4)nn23)cc1`, for which the Tm shift was 3.62 °C.

Consider `O=c1c(O)c(-c2ccc(O)c(O)c2)oc2cc(O)ccc12`, for which the Tm shift (pH 7.5, NaCl 150 mM) is 8.54 °C.

For the compound `CCN(CC)CCNC(=O)c1c(C)[nH]c(/C=C2\C(=O)Nc3ccc(Cl)cc32)c1C`, the Tm shift (pH 7.5, NaCl 150 mM) was 6 °C.

As for `Cc1cc(Nc2nc(-c3ccccc3)nc3ccccc23)n[nH]1`, the Tm shift (pH 7.5, NaCl 150 mM) is 11.1 °C. Still for that read-out and setting: the figure for `O=C(c1ccc(Nc2nccc(-c3cc4ccccc4s3)n2)cc1)N1CCC(N2CCCC2)CC1` is 8.9 °C; for `NCCCn1cc(C2=C(c3c[nH]c4ccccc34)C(=O)NC2=O)c2ccccc21` it is 4.96 °C; for `O=c1cc(-c2ccccc2)oc2cc(O)cc(O)c12` it is 5.74 °C.

On to `c1csc(-c2cnc3ccc(NCC4CC4)nn23)c1`, for which the Tm shift was 4.3 °C.

For the compound `O=C1C(=O)C(c2cccc(O)c2)Oc2ccccc21` (stereo unspecified), the Tm shift (pH 7.5, NaCl 150 mM) is 4.41 °C. For `Nc1cccc(-c2cc3c(Oc4cccc(O)c4)ncnc3[nH]2)c1`, the Tm shift (pH 7.5, NaCl 150 mM) is 5.9 °C. With `Clc1cccc(Nc2ccn3ncc(-c4ccsc4)c3n2)c1`, the Tm shift is 3.69 °C.

On to `Cc1c(O)cc(O)c2c1OC(c1ccc(O)c(O)c1)C(=O)C2=O` (stereo unspecified), for which, for the setting “pH 7.5, NaCl 150 mM”, the Tm shift is 3.29 °C. With `Clc1cccc(-c2cnc3ccc(NC4CCOCC4)nn23)c1`, the Tm shift was 4 °C. Take `O=c1c(O)c(-c2ccc(O)c(O)c2)oc2cc(O)cc(O)c12`: the Tm shift is 4.78 °C. Besides, under “pH 7.5, NaCl 150 mM”, the Tm shift is 4.75 °C.

Turning to `O=Nc1c(-c2c(O)[nH]c3ccccc23)[nH]c2ccccc12`, the Tm shift is 5.13 °C. As for `NS(=O)(=O)c1ccc(Nc2nc(OCC3CCCCC3)c3[nH]cnc3n2)cc1`, the Tm shift (pH 7.5, NaCl 150 mM) was 4.1 °C.

Consider `Cc1nc(N)sc1-c1ccnc(Nc2cccc(-n3oo3)c2)n1`, for which the Tm shift (pH 7.5, NaCl 150 mM) is 10.7 °C. For the compound `O=c1c(O)c(-c2ccc(O)cc2)oc2cc(O)cc(O)c12`, the Tm shift (pH 7.5, NaCl 150 mM) was 3.87 °C.

As for `O=C1c2ccccc2-c2n[nH]c3cccc1c23`, the Tm shift is 6.85 °C. For `O=c1[nH]c(O)c2c1c1c3ccccc3nc1n1cncc21`, the Tm shift (pH 7.5, NaCl 150 mM) was 5.4 °C. The same measure, in the same setting: the figure for `N#C/C(=C1\Nc2ccccc2S1)c1ccnc(NCCc2cccnc2)n1` is 5.5 °C; for `Nc1nc(Nc2ccc(S(N)(=O)=O)cc2)nn1C(=S)Nc1c(F)cccc1F` it is 7.8 °C; for `O=C1NC(=O)C(c2c[nH]c3ccccc23)=C1c1c[nH]c2ccccc12` it is 3.4 °C.

As to `CC(C)(C)c1nc2c3cc[nH]c(=O)c3c3cc(F)ccc3c2[nH]1`, the Tm shift is 3.46 °C.

With `CC1N=C2SC=CN2C(=O)C1CCN1CCC(=C(c2ccccc2)c2ccc(F)cc2)CC1` (stereo unspecified), the Tm shift is 3.67 °C. Besides, the Tm shift (pH 7.5, NaCl 150 mM) is 3.2 °C. For `O=C1NCc2c1c1c3ccccc3[nH]c1c1[nH]c3ccccc3c21`, where the note is “pH 7.5, NaCl 150 mM”, the Tm shift was 3.9 °C.

As for `O=Nc1c(-c2c(O)[nH]c3ccc(S(O)(O)O)cc23)[nH]c2ccccc12`, the Tm shift (pH 7.5, NaCl 150 mM) is 5.7 °C.

With `Clc1cccc(Nc2ccn3ncc(-c4cccnc4)c3n2)c1`, the Tm shift is 5.48 °C. As to `O=C(Nc1cccc(Nc2nccc(Nc3cccc(C(F)(F)F)c3)n2)c1)C1CC1`, the Tm shift (pH 7.5, NaCl 150 mM) is 5.75 °C.

The values are drawn from PubChem BioAssay AID395 (SGCOxCompounds, 2006).
